{
  "source": "patent EP4685153A1",
  "about": "(priority 2023, dated 2024)",
  "key": {"[1]": {"test": "In vitro cytotoxicity (CCK-8), MT-4 cells", "format": "cell-based", "settings": "human, CCK-8, 48 hours", "description": "(§1) The in vitro cytotoxicity was detected by using a CCK-8 cell proliferation/toxicity assay kit (manufacturer: Abbkine, Cat. No.: KTC 011001). […] By using GraphPad Prism software, the inhibition rate curve was fitted and the half-maximal cytotoxic concentration (CC50) of the drug was calculated."}, "[2]": {"test": "In vitro cytotoxicity (CCK-8), 293T/ACE2 cells", "format": "cell-based", "settings": "human, CCK-8, 48 hours", "description": "as §1"}, "[3]": {"test_system": "replicative HIV-1 strain JR-CSF"}, "[4]": {"test_system": "HIV-1 strain NL4-3 pseudovirus", "settings": "strain NL4-3 pseudovirus"}, "[5]": {"test_system": "MERS-CoV", "settings": "48 h"}, "[6]": {"test_system": "RABV", "settings": "48 h"}, "[7]": {"test_system": "EBOV", "settings": "48 h"}, "[8]": {"test": "In vitro cytotoxicity (CCK-8), Huh-7 cells", "format": "cell-based", "settings": "human, CCK-8, 48 hours", "description": "as §1"}, "[9]": {"test": "In vitro cytotoxicity (CCK-8), TZM-bl cells", "format": "cell-based", "settings": "human, CCK-8, 48 hours", "description": "as §1"}, "[10]": {"test": "In vitro cytotoxicity (CCK-8), HEK293T cells", "format": "cell-based", "settings": "human, CCK-8, 48 hours", "description": "as §1"}, "[11]": {"test": "Temperature stability experiment (antiviral activity after storage)", "settings": "300 µM aqueous solution, room temperature or 37 °C, various time periods; NL4-3 pseudovirus, TZM-bl cells"}, "[12]": {"test": "In vitro cytotoxicity (CCK-8), MDCK cells", "format": "cell-based", "settings": "dog, CCK-8, 48 hours", "description": "as §1"}, "[13]": {"test": "In vitro cytotoxicity (CCK-8), Hep-2 cells", "format": "cell-based", "settings": "human, CCK-8, 48 hours", "description": "as §1"}, "[14]": {"test_system": "protease K, trypsin, or α-chymotrypsin"}, "[15]": {"test": "Circular dichroism of lipopeptide alone", "format": "physicochemical", "settings": "CD, 10 µM in PBS pH 7.2"}, "[16]": {"test_system": "HIV-1 envelope protein (Env)", "test": "Env-mediated cell-cell fusion inhibition (DSP reporter system)"}, "[17]": {"molecular_target": "N44 (Human immunodeficiency virus type 1 group M subtype B, UniProt P04578)", "sequence (P04578 538-581)": "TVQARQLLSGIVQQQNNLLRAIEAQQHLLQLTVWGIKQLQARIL", "test": "Circular dichroism of lipopeptide complex with target sequence N44", "settings": "CD"}, "[18]": {"test_system": "HIV-1 strain JRFL pseudovirus", "settings": "strain JRFL pseudovirus"}, "[19]": {"test_system": "seven test cells", "test": "In vitro cytotoxicity (CCK-8), average over seven test cells", "format": "cell-based", "settings": "CC50/IC50", "description": "as §1"}, "[20]": {"test_system": "T20-resistant mutant strains (HIV-1 strain NL4-3)"}, "[21]": {"test_system": "H7N9", "settings": "48 h"}, "[22]": {"test_system": "MARV", "settings": "48 h"}, "[23]": {"test_system": "VSV", "settings": "48 h"}, "[24]": {"test_system": "representative pandemic HIV-1 strain pseudoviruses"}, "[25]": {"test": "Human serum stability experiment (antiviral activity after incubation)", "settings": "20% human serum, 37 °C, 0 to 240 minutes; NL4-3 pseudovirus, TZM-bl cells"}, "[26]": {"test_system": "HIV-1 strain SG3.1 living virus"}},
  "note": "Residues, ends and D or L forms follow the SMILES beside them. *: point of attachment. Succinyl(4-O-cholesteryl) = CC(C)CCC[C@@H](C)[C@H]1CC[C@H]2[C@@H]3CC=C4C[C@@H](OC(=O)CCC(=O)*)CC[C@]4(C)[C@H]3CC[C@]12C",
  "data": [
    {"compound": "CC[C@H](C)[C@H](NC(=O)[C@H](CCCCN)NC(=O)[C@H](CCCCN)NC(=O)[C@H](CCC(=O)O)NC(=O)[C@H](CC(C)C)NC(=O)[C@H](CCC(=O)O)NC(=O)[C@H](CCC(=O)O)NC(=O)[C@H](CC(C)C)NC(=O)[C@H](CCC(=O)O)NC(=O)[C@H](CCCCN)NC(=O)[C@H](CCC(=O)O)NC(=O)[C@H](Cc1ccc(O)cc1)NC(=O)[C@H](CCC(=O)O)NC(C)=O)C(=O)N[C@@H](CCC(=O)O)C(=O)N[C@@H](CCC(=O)O)C(=O)N[C@@H](CC(C)C)C(=O)N[C@@H](CC(C)C)C(=O)N[C@@H](CCCCN)C(=O)N[C@@H](CCCCN)C(=O)N[C@@H](C)C(=O)N[C@@H](CCC(=O)O)C(=O)N[C@@H](CCC(=O)O)C(=O)N[C@@H](CCC(N)=O)C(=O)N[C@@H](CCC(N)=O)C(=O)N[C@@H](CCCCN)C(=O)N[C@@H](CCCCN)C(=O)N[C@@H](CC(N)=O)C(=O)N[C@@H](CCC(=O)O)C(=O)N[C@@H](C)C(=O)N[C@@H](C)C(=O)N[C@@H](C)C(=O)N[C@@H](CCCCN)C(=O)N[C@@H](CCCCNC(=O)CCC(=O)O[C@H]1CC[C@@]2(C)C(=CC[C@H]3[C@@H]4CC[C@H]([C@H](C)CCCC(C)C)[C@@]4(C)CC[C@@H]32)C1)C(N)=O", "note": "[LP-128] (Ac-EYEKELEELEKKIEELLKKAEEQQKKNEAAAKK(Succinyl(4-O-cholesteryl))-NH2)", "values": [
      {"measurement": "CC50 at 48 h", "setting": "[1]", "result": 28200, "unit": "nM"},
      {"measurement": "CC50 at 48 h", "setting": "[2]", "result": 24100, "unit": "nM"},
      {"measurement": "inhibitory activity higher than the T20, JR-CSF", "setting": "[3]; TZM-bl cells, versus T20", "result": 750, "unit": "folds"},
      {"measurement": "IC50", "setting": "[3]; replicative strain JR-CSF, 48 h", "result": 0.00747, "unit": "nM"},
      {"measurement": "IC50", "setting": "[4]", "result": 0.00327, "unit": "nM"},
      {"measurement": "IC50", "setting": "[5]", "result": 456, "unit": "nM"},
      {"measurement": "IC50", "setting": "[6]", "result": 1130, "unit": "nM"},
      {"measurement": "IC50", "setting": "[7]", "result": 274, "unit": "nM"},
      {"measurement": "CC50 at 48 h", "setting": "[8]", "result": 40300, "unit": "nM"},
      {"measurement": "CC50 at 48 h", "setting": "[9]", "result": 7490, "unit": "nM"},
      {"measurement": "CC50 at 48 h", "setting": "[10]", "result": 8720, "unit": "nM"},
      {"measurement": "change in antiviral activity after treatment at different temperatures", "setting": "[11]", "result": "no significant change"},
      {"measurement": "CC50 at 48 h", "setting": "[12]", "result": 18000, "unit": "nM"},
      {"measurement": "CC50 at 48 h", "setting": "[13]", "result": 12500, "unit": "nM"},
      {"measurement": "change in antiviral activity after treatment with three proteases", "setting": "[14]", "result": "no significant change"},
      {"measurement": "α-helix content, lipopeptide alone", "setting": "[15]", "result": 66, "unit": "%"},
      {"measurement": "IC50", "setting": "[16]; read-out: average IC50 value, membrane fusion of 12 viruses, average over Env of 12 representative pandemic HIV-1 strains", "result": 0.00402, "unit": "nM"},
      {"measurement": "inhibitory activity against membrane fusions of 12 viruses higher than that of the T20", "setting": "[16]; versus T20", "result": 2790, "unit": "folds"},
      {"measurement": "Tm value of the mixture with N44", "setting": "[17]; [θ]222, 20-98 °C at 2 °C/min", "result": 90, "unit": "°C"},
      {"measurement": "α-helix content of the mixture with N44", "setting": "[17]; lipopeptide and N44 each 10 µM in PBS pH 7.2", "result": 84, "unit": "%"},
      {"measurement": "IC50", "setting": "[18]", "result": 0.00497, "unit": "nM"},
      {"measurement": "therapeutic selective index (SI)", "setting": "[19]", "result": "very high"},
      {"measurement": "IC50", "setting": "[20]; T20-resistant mutant strains ( strain NL4-3, 48 h)", "result": 0.00913, "unit": "nM"},
      {"measurement": "inhibitory activity against 12 drug-resistant mutant strains higher than that of the LP-98", "setting": "[20]; versus LP-98", "result": 292, "unit": "folds"},
      {"measurement": "IC50", "setting": "[21]", "result": 353, "unit": "nM"},
      {"measurement": "IC50", "setting": "[22]", "result": 534, "unit": "nM"},
      {"measurement": "IC50", "setting": "[23]", "result": 1490, "unit": "nM"},
      {"measurement": "IC50", "setting": "[24]; representative pandemic strain pseudoviruses, 48 h", "result": 0.00319, "unit": "nM"},
      {"measurement": "inhibitory activity against 12 pseudoviruses higher than that of the T20", "setting": "[24]; versus T20", "result": 6286, "unit": "folds"},
      {"measurement": "change in antiviral activity after treatment with human serum", "setting": "[25]", "result": "no significant change"},
      {"measurement": "inhibitory activity higher than that of the T20, SG3.1", "setting": "[26]; TZM-bl cells, versus T20", "result": 4282, "unit": "folds"},
      {"measurement": "IC50", "setting": "[26]; strain SG3.1 living virus", "result": 0.00175, "unit": "nM"}
    ]}
  ]
}
